Reference: patent US20210301261A1, “HUMAN LIVER MICROPHYSIOLOGY PLATFORM AND SELF ASSEMBLY LIVER ACINUS MODEL AND METHODS OF THEIR USE” (priority 2014, published 2021)
“Also recorded” adds a separate entry of the source. Read-outs that look alike come from different tables or passages of the source.

Key:
U937 cells = assay: TNF-alpha release from LPS activated U937 cells; assay type: cell-based, human
SALA model cells = conditions: human
Description: (§1) Efflux media was collected for measurements of organ model health using assays for lactate dehydrogenase (LDH) release, and albumin, and urea synthesis. LDH is released from cells under conditions of cytotoxic damage. Albumin and urea are secreted from functional hepatocytes. The media efflux was also used to monitor the presence of drug and metabolic products for PK. When compounds are included in the microfluidic media, hepatocytes are exposed to the compound and often biotransform them to a chemically distinct product. Mass spectrometry is a specific and sensitive method to observe these changes. Typically, ca. 15 microliters of media is collected for each biochemical and mass spec measurement (flow rate=5 microliters per hour.)
Troglitazone (28 or 180 μM), or caffeine (600 μM, negative control) was introduced into the microfluidic device for 0-28 days.

[1] = test system: hepatocytes in SALA model; assay: Hepatocyte area measured in real-time with cytochrome C biosensor in SALA model; assay type: cell-based, human
Description: (§2) Correlation of propidium iodide (PI) uptake with cell area of hepatocytes is illustrated in FIG. 11. The cytochrome C biosensor is used to measure hepatocyte area in order to perform real-time measurements of apoptosis.

[2] = test system: hepatocytes in SALA model; assay: Propidium iodide uptake of hepatocytes in SALA model; assay type: cell-based, human; conditions: 200 μM trovafloxacin co-treated with 1 ug/ml LPS, compared to vehicle
Description: as §2

[3] = test system: hepatocytes in SALA model; assay: Oxidative stress response in biosensor transduced hepatocytes in SALA model; assay type: cell-based, human; conditions: 0 to 15 hr treatment period
Description: Image processing at each time point provides kinetic physiological responses is provided in Panel D.

[4] = in vivo; cited from earlier work
liver [5] = conditions: cited from earlier work; for liver injury incidents/million prescriptions: human; for Human/Animal Toxicology (findings in words, wrapped cells): in vivo
liver [6] = conditions: cited from earlier work
[7] = test system: hepatocytes in SALA model (bile canalicular efflux, BSEP); assay: Bile efflux (CMFDA fluorescence) in SALA model; assay type: cell-based, human; conditions: 50 μM
[8] = test system: hepatocyte sentinel cells; assay: Statistical validation of biosensors in hepatocyte sentinel cells in microplates; assay type: cell-based, human; conditions: 50 μM
Description: A panel of biosensors was delivered through lentiviral transduction in multiple fluorescent protein colors initially validated in microplates for an acute response. An SSMD level of ≥2 is considered a statistically valid response.

[9] = test system: hepatocytes in SALA model (Cyp3A4 signature metabolite); assay: LC-MS of efflux media: metabolic clearance and metabolite production in SALA model; conditions: 5 μM testosterone in influx media; efflux collected over 24 hr at 5 μl/hr; day 10
Description: as §1

LX-2 stellate cells = conditions: 30 nM
Description: Day 21 Immunofluorescence images of a SALA liver vehicle treated 21 days, fixed, and reacted against α-Human Collagen type ½ is provided in panel C. […] Nuclei are false colored blue in all images.

Molecule: Lipopolysaccharide [LPS]
- EC50 of TNF-alpha release (U937 cells): 0.7 µg/mL

Molecule: CS(=O)(=O)Nc1ccc([N+](=O)[O-])cc1Oc1ccccc1 [Nimesulide]
- LDH leakage, time of peak (SALA model cells; 210 μM): ~5 days

Molecule: N[C@@H]1[C@H]2CN(c3nc4c(cc3F)c(=O)c(C(=O)O)cn4-c3ccc(F)cc3F)C[C@@H]12 [trovafloxacin]
- hepatocyte area ([1]; 200 μM trovafloxacin alone, day 7): decrease in hepatocyte area
- cell area of hepatocytes ([1]; 200 μM trovafloxacin co-treated with 1 ug/ml LPS, compared to vehicle (1% DMSO)): reduction in cell area
- hepatocyte area ([1]; 200 μM trovafloxacin plus 1 ug/ml LPS, day 5): decrease in hepatocyte area
- propidium iodide (PI) uptake [2]: increased PI uptake
- propidium iodide (PI) uptake ([2]; listed as trovofloxacin): increase in propidium iodide uptake

Molecule: CCc1nn(CCCN2CCN(c3cccc(Cl)c3)CC2)c(=O)n1CCOc1ccccc1 [Nefazodone]
- ROS generation [3]: increase of ROS generation
- mitochondrial function [3]: decrease in mitochondrial function
- oxidative stress in hepatocytes [3]: induces oxidative stress
- Cmax [4]: 900 nM
- liver injury incidents/million prescriptions (liver [5]): 105 incidents/million incidents/million prescriptions
- Human/Animal Toxicology (findings in words, wrapped cells) (liver [5]): Acute hepatitis; also recorded: Centrilobular (zone 3); also recorded: Cholestasis, apoptosis
- MOT (wrapped cells) (liver [6]): Mitochondrial and ROS and Bile Efflux

Molecule: O=c1n(CCCN2CCN(c3cccc(Cl)c3)CC2)nc2ccccn12 [Trazodone]
- Cmax [4]: 5000 nM
- liver injury incidents/million prescriptions (liver [5]): 0.21 incidents/million prescriptions
- Human/Animal Toxicology (findings in words, wrapped cells) (liver [5]): extremely rare liver; also recorded: Mild ↑transaminases,
- MOT (wrapped cells) (liver [6]): No known

Molecule: Cc1c(C)c2c(c(C)c1O)CCC(C)(COc1ccc(CC3SC(=O)NC3=O)cc1)O2 (stereo not drawn) [Troglitazone]
- release of LDH, time of peak loss (SALA model cells; 28 μM): ~13 days
- release of LDH, time of peak loss (SALA model cells; 180 μM): ~4 days
- CMFDA dye uptake and efflux in hepatocytes ([7]; 10 day treatment, monitored 60 minutes, compared to vehicle): slower uptake and inhibition of efflux
- hepatocyte retention of dye ([7]; at 60 minutes): increased hepatocyte retention of dye
- SSMD, Bile canalicular efflux (CMFDA) [8]: 11
- Cmax [4]: 1800 nM
- liver injury incidents/million prescriptions (liver [5]): Up to 1000 incidents/million prescriptions
- Human/Animal Toxicology (findings in words, wrapped cells) (liver [5]): Moderate to severe; also recorded: Variable necrosis,; also recorded: cholestasis,; also recorded: inflammatory
- MOT (wrapped cells) (liver [6]): Mitochondrial; also recorded: BSEP inhibitor

Molecule: C[C@]12CC[C@H]3[C@@H](CCC4=CC(=O)CC[C@@]43C)[C@@H]1CC[C@@H]2O [testosterone]
- testosterone exits unchanged through the device (ratio of mass area under the curves) [9]: 27%

Molecule: CN(Cc1cnc2nc(N)nc(N)c2n1)c1ccc(C(=O)N[C@@H](CCC(=O)O)C(=O)O)cc1 [methotrexate]
- expression of collagen type 1A2 protein in LX-2 stellate cells (LX-2 stellate cells; day 21, relative to vehicle control): increased
- LX-2 stellate cell division, transmigration and accumulation in hepatocyte layer (LX-2 stellate cells; over 21 days, compared with vehicle (1.0% DMSO)): accelerated rate
